According to PMC4965148 (PLoS ONE, 2016):
“And” between values parts separate entries of the source, which are not always exact repeats. Equal values may be shown once. Read-outs that look alike come from different tables or passages of the source.

Key:
rat α1β1δε nAChR = target: T1, rat α1β1δε nAChR (Rattus norvegicus, UniProt P09660+P25108+P25109+P25110); experiment: Ca2+ flux (FLIPR) agonist/antagonist assay; type: cell-based
T1 construct: expressed in transfected cells; host or cells: HEK293 (made by Bristol-Myers Squibb)
T1 sequence (P25108 21-457): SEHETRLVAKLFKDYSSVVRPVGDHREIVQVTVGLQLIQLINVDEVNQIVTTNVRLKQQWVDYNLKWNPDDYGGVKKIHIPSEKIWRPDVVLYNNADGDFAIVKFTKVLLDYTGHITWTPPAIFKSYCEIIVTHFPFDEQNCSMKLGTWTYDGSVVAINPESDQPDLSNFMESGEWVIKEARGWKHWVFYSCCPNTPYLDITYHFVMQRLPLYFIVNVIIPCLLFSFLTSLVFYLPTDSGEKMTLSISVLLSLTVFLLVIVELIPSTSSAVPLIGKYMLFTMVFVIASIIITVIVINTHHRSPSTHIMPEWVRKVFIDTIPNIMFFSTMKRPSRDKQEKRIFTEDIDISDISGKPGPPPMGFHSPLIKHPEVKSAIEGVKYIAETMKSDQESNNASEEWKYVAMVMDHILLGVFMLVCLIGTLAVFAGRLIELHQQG
T1 sequence (P25109 24-501): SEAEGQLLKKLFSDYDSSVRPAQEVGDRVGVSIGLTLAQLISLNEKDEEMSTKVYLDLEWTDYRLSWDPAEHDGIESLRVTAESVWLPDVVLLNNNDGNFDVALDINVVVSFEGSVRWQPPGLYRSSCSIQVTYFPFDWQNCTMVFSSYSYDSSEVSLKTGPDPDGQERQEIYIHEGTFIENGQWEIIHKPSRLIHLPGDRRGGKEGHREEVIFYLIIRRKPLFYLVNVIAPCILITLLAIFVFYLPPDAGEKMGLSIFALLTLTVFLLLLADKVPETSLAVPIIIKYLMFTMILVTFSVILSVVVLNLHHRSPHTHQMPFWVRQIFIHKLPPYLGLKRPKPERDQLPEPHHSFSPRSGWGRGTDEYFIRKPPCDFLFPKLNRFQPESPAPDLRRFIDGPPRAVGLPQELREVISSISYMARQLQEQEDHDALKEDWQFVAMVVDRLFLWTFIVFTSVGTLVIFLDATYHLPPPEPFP
T1 sequence (P25110 22-517): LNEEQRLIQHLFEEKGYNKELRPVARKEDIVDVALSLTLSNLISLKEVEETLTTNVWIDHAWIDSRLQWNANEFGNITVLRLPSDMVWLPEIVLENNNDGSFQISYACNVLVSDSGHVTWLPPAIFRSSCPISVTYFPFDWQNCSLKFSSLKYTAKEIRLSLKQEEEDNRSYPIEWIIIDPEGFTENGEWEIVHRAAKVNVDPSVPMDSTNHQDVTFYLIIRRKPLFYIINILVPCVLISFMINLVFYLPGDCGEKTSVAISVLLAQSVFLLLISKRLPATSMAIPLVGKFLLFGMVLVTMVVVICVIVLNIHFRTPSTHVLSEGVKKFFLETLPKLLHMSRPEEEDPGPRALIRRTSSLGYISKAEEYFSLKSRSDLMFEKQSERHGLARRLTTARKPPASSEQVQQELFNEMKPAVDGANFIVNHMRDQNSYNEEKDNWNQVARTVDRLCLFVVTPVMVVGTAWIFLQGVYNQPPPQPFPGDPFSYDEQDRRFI
T1 sequence (P09660 21-494): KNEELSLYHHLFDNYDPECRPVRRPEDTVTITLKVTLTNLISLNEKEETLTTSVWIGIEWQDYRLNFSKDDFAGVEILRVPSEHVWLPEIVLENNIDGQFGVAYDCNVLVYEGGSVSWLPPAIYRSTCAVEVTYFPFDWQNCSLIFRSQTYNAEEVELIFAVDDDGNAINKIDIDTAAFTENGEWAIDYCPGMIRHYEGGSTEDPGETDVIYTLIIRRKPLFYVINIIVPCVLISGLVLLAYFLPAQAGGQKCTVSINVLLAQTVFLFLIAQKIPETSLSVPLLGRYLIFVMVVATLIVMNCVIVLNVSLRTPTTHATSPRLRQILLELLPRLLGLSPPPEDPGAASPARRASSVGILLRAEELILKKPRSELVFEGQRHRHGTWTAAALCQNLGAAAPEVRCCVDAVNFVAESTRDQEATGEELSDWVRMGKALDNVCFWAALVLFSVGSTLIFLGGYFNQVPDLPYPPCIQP

rat α3β4 nAChR = target: T2, rat α3β4 nAChR (Rattus norvegicus, UniProt P04757+P12392); experiment: Ca2+ flux (FLIPR) agonist/antagonist assay; type: cell-based
T2 construct: expressed in transfected cells; host or cells: HEK293 (made by Bristol-Myers Squibb)
T2 sequence (P04757 26-499): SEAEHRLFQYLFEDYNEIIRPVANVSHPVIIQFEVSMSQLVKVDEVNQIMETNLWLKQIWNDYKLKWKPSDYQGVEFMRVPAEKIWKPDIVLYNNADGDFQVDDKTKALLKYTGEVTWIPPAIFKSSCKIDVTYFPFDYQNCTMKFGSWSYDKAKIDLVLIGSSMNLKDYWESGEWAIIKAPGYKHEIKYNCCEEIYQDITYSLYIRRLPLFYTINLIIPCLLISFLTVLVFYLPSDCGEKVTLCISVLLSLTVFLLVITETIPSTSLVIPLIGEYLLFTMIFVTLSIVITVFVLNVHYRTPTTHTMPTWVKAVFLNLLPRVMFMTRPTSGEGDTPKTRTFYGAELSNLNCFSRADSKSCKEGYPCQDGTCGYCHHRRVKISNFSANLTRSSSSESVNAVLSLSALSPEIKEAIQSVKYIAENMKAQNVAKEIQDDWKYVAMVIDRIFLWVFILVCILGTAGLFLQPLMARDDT
T2 sequence (P12392 21-495): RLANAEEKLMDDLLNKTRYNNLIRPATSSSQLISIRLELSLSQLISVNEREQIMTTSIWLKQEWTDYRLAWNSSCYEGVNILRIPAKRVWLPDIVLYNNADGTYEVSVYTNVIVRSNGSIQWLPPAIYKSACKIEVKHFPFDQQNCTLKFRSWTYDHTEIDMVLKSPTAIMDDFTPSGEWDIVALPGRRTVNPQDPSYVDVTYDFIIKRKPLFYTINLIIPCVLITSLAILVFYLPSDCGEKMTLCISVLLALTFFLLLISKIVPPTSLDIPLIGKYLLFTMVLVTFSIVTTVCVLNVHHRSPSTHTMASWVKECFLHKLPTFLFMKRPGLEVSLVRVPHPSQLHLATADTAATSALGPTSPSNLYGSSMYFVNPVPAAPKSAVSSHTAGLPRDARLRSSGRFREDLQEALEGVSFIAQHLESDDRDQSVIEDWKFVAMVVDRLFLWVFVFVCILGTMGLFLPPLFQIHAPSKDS

rat α4β2 nAChR = target: T3, rat α4β2 nAChR (Rattus norvegicus, UniProt P09483+P12390); experiment: Ca2+ flux (FLIPR) agonist/antagonist assay; type: cell-based
T3 construct: expressed in transfected cells; host or cells: HEK293 (made by Bristol-Myers Squibb)
T3 sequence (P09483 31-630): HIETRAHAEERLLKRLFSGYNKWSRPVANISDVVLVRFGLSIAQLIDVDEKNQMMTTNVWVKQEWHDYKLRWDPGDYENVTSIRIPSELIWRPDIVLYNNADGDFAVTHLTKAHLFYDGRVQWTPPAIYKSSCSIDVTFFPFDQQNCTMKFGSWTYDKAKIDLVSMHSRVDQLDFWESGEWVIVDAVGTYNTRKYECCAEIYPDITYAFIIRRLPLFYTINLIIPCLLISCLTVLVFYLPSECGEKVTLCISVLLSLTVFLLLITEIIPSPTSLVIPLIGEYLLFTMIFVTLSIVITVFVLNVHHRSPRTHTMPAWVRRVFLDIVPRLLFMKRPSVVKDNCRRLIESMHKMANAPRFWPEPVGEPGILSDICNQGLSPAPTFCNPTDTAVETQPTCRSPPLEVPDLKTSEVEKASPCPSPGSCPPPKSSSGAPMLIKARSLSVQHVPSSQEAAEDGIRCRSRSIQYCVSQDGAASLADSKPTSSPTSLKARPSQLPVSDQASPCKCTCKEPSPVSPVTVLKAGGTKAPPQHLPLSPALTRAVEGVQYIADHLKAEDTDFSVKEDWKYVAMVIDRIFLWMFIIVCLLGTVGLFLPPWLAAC
T3 sequence (P12390 25-500): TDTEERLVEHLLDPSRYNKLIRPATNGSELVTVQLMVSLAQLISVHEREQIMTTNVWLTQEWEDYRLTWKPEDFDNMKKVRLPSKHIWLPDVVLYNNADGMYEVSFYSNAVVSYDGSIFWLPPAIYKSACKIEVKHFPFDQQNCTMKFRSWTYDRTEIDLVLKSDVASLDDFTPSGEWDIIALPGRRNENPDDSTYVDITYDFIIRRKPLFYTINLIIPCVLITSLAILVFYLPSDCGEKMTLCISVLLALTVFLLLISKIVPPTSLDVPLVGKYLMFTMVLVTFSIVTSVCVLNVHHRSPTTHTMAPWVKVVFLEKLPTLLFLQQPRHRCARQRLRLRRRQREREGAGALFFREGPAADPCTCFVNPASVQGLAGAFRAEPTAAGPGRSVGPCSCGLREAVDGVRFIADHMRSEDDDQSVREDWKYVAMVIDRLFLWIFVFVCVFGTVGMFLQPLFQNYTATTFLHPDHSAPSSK

HEK293/Human 5-HT3A = target: T4, HEK293/Human 5-HT3A (Homo sapiens, UniProt P46098); experiment: Ca2+ flux (FLIPR) 5-HT3A antagonist assay; type: cell-based
T4 construct: expressed in transfected cells; host or cells: HEK293 (made by Bristol-Myers Squibb)
T4 sequence (P46098 24-478): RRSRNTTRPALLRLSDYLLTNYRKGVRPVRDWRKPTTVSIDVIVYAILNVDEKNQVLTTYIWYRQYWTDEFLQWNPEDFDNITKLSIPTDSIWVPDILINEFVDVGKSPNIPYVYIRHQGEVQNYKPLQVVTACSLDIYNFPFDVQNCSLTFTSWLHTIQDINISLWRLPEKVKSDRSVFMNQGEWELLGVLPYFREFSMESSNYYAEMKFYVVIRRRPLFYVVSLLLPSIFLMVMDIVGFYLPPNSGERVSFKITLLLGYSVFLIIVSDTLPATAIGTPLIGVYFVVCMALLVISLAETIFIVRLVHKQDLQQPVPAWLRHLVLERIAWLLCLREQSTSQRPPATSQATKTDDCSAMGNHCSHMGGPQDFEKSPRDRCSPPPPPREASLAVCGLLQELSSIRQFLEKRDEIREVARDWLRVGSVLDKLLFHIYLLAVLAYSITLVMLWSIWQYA
Experimental: Functional activity was examined using Ca^2+-sensitive, dye-based, microfluorometric assays read on the FLIPR Tetra plate reader platform (Molecular Devices, CA, USA). Cells were plated in 384-well black, clear-bottomed Greiner poly-D-lysine coated plates at a density of ~25 K cells/well and incubated at 29°C for 48 h. Prior to assay, media contents were removed and cells incubated in assay buffer containing 5μM final Fluo-4 dye for 90 min. For nAChR assays, the dye-loading buffer was HBSS (#14175 Life Technologies) supplemented with 20 mM HEPES, 0.5 mM CaCl2, 1 mM MgCl2 and 10 μM atropine (final concentration). Test compounds were solubilized in DMSO and serially diluted in NUNC 384-well plates prior to addition of assay buffer (5.3 mM KCl + 140 mM NaCl + 20 mM Hepes + 25 mM CaCl2 + 1 mM MgCl2 + 10 μM atropine final concentration). Compounds diluted in assay buffer were added to the assay plate by the FLIPR and read for approximately 2 min. […] For 5-HT3A antagonist studies, the dye loading and compound diluent buffer was HBSS (#14025 Life Technologies) supplemented with 20 mM HEPES (final concentration) and the concentration of 5-HT used in the assay was 2 μM. Offline transformation of concentration response data was done using a 4 parameter logistic fit using a Bristol-Myers Squibb proprietary informatics software suite.

[1] = target: T5, HEK293/rat α7 nAChR cells (Rattus norvegicus, UniProt Q05941); experiment: Whole cell voltage clamp electrophysiology; type: cell-based; details: for Net Charge (Current Area) normalized to 300 µM ACh / Peak Current normalized to 3 mM ACh: individual cells
T5 construct: expressed in transfected cells
T5 sequence (Q05941 23-502): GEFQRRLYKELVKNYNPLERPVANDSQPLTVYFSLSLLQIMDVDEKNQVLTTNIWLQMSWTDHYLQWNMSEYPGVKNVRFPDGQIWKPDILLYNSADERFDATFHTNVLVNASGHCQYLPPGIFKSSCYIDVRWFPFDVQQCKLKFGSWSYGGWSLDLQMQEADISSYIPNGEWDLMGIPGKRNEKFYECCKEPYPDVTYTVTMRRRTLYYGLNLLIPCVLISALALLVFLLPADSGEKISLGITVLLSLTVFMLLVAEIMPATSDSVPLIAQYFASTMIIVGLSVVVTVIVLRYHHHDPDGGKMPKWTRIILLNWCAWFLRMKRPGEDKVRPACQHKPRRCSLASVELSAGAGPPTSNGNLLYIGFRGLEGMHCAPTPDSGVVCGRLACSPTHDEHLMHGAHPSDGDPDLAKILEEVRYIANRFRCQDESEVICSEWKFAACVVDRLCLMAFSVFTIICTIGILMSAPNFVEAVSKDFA
Experimental: Whole-cell voltage clamp studies were conducted on HEK293/rat α7 or HEK293/human α7 nAChR cells. […] Atropine (1 μM) was included in the bathing solution. […] Cells were voltage clamped at a holding potential of -90 mV. Using the Dynaflow microfluidic perfusion system (Cellectricon; flow 26 μl/min) responses to a 300 ms application of ACh or α7 nAChR agonists were measured. Currents were filtered at 2 kHz and sampled at 10 kHz using an EPC-9 amplifier and HEKA Pulse/Patchmaster software. […] The peak current amplitude and net charge crossing the membrane (i.e. the area under the current response curve) induced by agonist application were measured using Clampfit (pClamp Suite) and normalized to the maximal response induced by ACh (3 mM ACh for peak current amplitude and 300 μM ACh for net charge).

α7 nAChR = details: read-out: reported Ki; cited from earlier work
human 5-HT3A receptors = target: T6, human 5-HT3A receptors (Homo sapiens, UniProt P46098); experiment: biochemical; details: human 5-HT3A Ki, displacement of [3H]-granisetron
T6 sequence (P46098 24-478): T4 sequence (P46098 24-478)

HEK293/Human α7 nAChR = HEK293/Human α7 nAChR (Homo sapiens, UniProt P36544); experiment: [3H]-A-585539 filtration binding; design: expressed in transfected cells; details: recombinant human α7 nAChR; n = 2; read-out: mean Kd, saturation binding
HEK293/Human α7 nAChR, sequence (P36544 23-502): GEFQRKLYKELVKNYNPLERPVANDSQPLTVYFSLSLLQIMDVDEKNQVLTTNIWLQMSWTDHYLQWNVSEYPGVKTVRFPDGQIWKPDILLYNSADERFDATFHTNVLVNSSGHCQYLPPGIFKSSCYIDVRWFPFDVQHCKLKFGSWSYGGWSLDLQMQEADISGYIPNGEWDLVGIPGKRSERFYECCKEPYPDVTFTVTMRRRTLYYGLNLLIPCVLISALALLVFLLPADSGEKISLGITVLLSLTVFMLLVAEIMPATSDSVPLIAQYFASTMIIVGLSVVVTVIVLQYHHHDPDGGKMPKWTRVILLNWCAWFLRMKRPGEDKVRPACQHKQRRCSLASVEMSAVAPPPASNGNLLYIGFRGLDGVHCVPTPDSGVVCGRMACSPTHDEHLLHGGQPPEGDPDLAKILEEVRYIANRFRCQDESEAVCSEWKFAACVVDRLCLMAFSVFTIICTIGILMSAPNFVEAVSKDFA

Structure (SMILES): Cl.O=C(N[C@H]1CN2CCC1CC2)c1ccc(Cl)cc1 [PNU-282987, N-(3R)-1-azabicyclo[2.2.2]oct-3-yl-4-chloro-benzamide hydrochloride]
- EC50 (rat α1β1δε nAChR; FLIPR agonist mode, read-out: agonist EC50 at α1β1δε nAChR): > 100 µM
- EC50 (rat α3β4 nAChR; FLIPR agonist mode, read-out: agonist EC50 at α3β4 nAChR): > 100 µM
- EC50 (rat α4β2 nAChR; FLIPR agonist mode, read-out: agonist EC50 at α4β2 nAChR): > 100 µM
- Ratio (5-HT3A IC50 / α7 nAChR EC50; functional selectivity) (HEK293/Human 5-HT3A; FLIPR): 264
- IC50 (HEK293/Human 5-HT3A; HEK293/Human 5-HT3A Mean ± SD IC50, Ca2+ flux (FLIPR), antagonism of 2 μM 5-HT): 24.9 µM
- IC50 (HEK293/Human 5-HT3A; Human 5-HT3A IC50 values (individual), FLIPR, individual determinations): 32.1 µM and 23.6 µM and 6.35 µM and 38.4 µM and 24.1 µM

Structure (SMILES): O=C(N[C@@H]1C2CCN(CC2)[C@H]1Cc1cccnc1)c1cc2ccccc2o1 [TC-5619, (2S,3R)-N-[2-(pyridin-3-ylmethyl)-1-azabicyclo[2.2.2]oct-3-yl]benzo[b]furan-2-carboxamide]
- EC50 (rat α1β1δε nAChR): > 100 µM
- EC50 (rat α3β4 nAChR): > 100 µM
- EC50 (rat α4β2 nAChR): > 100 µM
- IC50 (HEK293/Human 5-HT3A; Ca2+ flux (FLIPR), antagonism of 2 μM 5-HT, read-out: HEK293/Human 5-HT3A Mean ± SD IC50): > 100 µM
- IC50 (HEK293/Human 5-HT3A; FLIPR, individual determinations, read-out: Human 5-HT3A IC50 values (individual)): > 100 µM
- Net Charge (Current Area) normalized to 300 µM ACh ([1]; 0.001 µM): 0.01291 and 0.1795 and 0.008199
- Peak Current normalized to 3 mM ACh ([1]; 0.001 µM): 0.003543 and 0.01162 and 0.003662
- Net Charge (Current Area) normalized to 300 µM ACh ([1]; 0.003 µM): -0.00013 and 0.03241 and 0.001885
- Peak Current normalized to 3 mM ACh ([1]; 0.003 µM): 0.003116 and 0.008701 and 0.005453
- Net Charge (Current Area) normalized to 300 µM ACh ([1]; 0.01 µM): 0.000016 and 0.002188 and -0.00959
- Peak Current normalized to 3 mM ACh ([1]; 0.01 µM): 0.006073 and 0.007536 and 0.009875
- Net Charge (Current Area) normalized to 300 µM ACh ([1]; 0.03 µM): 0.1492 and 0.1468 and 0.2028
- Peak Current normalized to 3 mM ACh ([1]; 0.03 µM): 0.02004 and 0.01567 and 0.02139
- Mean ± SEM Net Charge Ymax ([1]; Rat, normalized to 300 μM ACh): 1.26 ± 0.02
- Mean ± SEM Peak Current Ymaxobs @ 10 μM ([1]; Rat, normalized to 3 mM ACh): 0.55 ± 0.06
- Net Charge (Current Area) normalized to 300 µM ACh ([1]; TC-5619 series 0.1 µM): 0.6879 and 0.7239 and 0.8481
- Peak Current normalized to 3 mM ACh ([1]; TC-5619 series 0.1 µM): 0.05408 and 0.04485 and 0.05183
- Net Charge (Current Area) normalized to 300 µM ACh ([1]; TC-5619 series 0.3 µM): 1.093 and 1.107 and 1.105
- Peak Current normalized to 3 mM ACh ([1]; TC-5619 series 0.3 µM): 0.1599 and 0.1241 and 0.1149
- Net Charge (Current Area) normalized to 300 µM ACh ([1]; TC-5619 series 1 µM): 1.242 and 1.143 and 1.297
- Peak Current normalized to 3 mM ACh ([1]; TC-5619 series 1 µM): 0.276 and 0.2576 and 0.2679
- Net Charge (Current Area) normalized to 300 µM ACh ([1]; TC-5619 series 3 µM): 1.234 and 1.271 and 1.312
- Peak Current normalized to 3 mM ACh ([1]; TC-5619 series 3 µM): 0.4166 and 0.4279 and 0.4555
- Net Charge (Current Area) normalized to 300 µM ACh ([1]; TC-5619 series 10 µM): 1.226 and 1.317 and 1.306
- Peak Current normalized to 3 mM ACh ([1]; TC-5619 series 10 µM): 0.4847 and 0.4851 and 0.6732
- Ki (α7 nAChR): 0.001 µM
- Ki (human 5-HT3A receptors): > 10 µM

Structure (SMILES): C[N+]1(C)CC2CC1CN2c1ccc(-c2ccccc2)nn1 (stereo not shown) [[^3H]-A-585539, ^3H-2,2-dimethyl-5-(6-phenyl-3-pyridazinyl)-5-aza-2-azoniabicyclo[2.2.1]heptane iodide]
- Kd (HEK293/Human α7 nAChR): 0.000656 µM
